Test results from BindingDB's records for patent US11306081 (Bristol Myers Squibb, 2022).

Molecular target: Rho-associated protein kinase 2 (Homo sapiens, UniProt O75116)
Experiment: In Vitro Assay
Protocol: The effectiveness of compounds of the present invention as ROCK inhibitors can be determined in a 30 μL assay containing 20 mM HEPES, pH 7.5, 20 mM MgCl2, 0.015% Brij-35, 4 mM DTT, 5 μM ATP and 1.5 μM peptide substrate (FITC-AHA-AKRRRLSSLRA-OH) (SEQ ID No. 1). Compounds were dissolved in DMSO so that the final concentration of DMSO was <2%, and the reaction was initiated with Rho kinase variants. After incubation, the reaction was terminated by the addition of EDTA and the phosphorylated and non-phosphorylated peptides separated using a LABCHIP 3000 Reader (Caliper Life Sciences). […] Compounds were tested in dose-response format, and the inhibition of kinase activity was calculated at each concentration of compound. The inhibition data were fit using a curve-fitting program to determine the IC50; i.e., the concentration of compound required to inhibit 50% of kinase activity.

Sequence of Rho-associated protein kinase 2 (O75116 whole entry): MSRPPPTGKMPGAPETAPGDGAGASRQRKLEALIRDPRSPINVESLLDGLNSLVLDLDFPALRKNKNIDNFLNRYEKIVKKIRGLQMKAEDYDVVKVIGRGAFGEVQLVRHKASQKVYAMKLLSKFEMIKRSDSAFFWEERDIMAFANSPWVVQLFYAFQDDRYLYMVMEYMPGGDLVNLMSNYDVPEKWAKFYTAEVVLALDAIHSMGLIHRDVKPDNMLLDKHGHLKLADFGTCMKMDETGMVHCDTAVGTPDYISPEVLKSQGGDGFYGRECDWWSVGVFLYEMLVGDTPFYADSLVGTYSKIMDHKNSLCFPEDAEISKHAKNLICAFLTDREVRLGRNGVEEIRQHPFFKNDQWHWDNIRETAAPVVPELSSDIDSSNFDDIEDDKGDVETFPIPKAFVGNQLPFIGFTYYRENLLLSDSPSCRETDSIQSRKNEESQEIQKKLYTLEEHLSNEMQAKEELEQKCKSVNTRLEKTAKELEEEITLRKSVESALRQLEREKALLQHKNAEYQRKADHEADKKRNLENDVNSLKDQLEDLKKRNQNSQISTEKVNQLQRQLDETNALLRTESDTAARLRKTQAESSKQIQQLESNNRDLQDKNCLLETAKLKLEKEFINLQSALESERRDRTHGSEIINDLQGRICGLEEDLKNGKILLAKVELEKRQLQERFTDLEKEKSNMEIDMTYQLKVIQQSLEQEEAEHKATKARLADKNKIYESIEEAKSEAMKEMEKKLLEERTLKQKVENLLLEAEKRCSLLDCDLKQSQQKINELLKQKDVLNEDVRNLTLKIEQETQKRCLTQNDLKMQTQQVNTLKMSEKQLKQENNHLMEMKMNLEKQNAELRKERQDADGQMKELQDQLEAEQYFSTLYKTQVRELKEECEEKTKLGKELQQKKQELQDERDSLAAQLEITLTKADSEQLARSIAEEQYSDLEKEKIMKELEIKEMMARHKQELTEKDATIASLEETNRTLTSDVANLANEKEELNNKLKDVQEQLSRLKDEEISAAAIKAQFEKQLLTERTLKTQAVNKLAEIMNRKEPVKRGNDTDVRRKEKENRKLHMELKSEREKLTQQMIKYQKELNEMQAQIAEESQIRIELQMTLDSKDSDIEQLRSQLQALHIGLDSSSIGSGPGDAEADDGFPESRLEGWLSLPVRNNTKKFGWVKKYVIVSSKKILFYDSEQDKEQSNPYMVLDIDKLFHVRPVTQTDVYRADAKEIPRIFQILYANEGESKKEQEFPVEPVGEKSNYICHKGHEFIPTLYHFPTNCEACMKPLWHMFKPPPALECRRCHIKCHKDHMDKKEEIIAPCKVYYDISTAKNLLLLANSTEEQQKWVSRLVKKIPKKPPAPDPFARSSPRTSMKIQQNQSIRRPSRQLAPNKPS

IC50: 8 nM
SMILES: COc1ccc2sc(NC(=O)Cc3ccc(Oc4ncccc4C(N)=O)c(Cl)c3)nc2c1 [US11306081, Example 115]
